# Biological target: T1, angiotensin-converting enzyme (ACE) (Oryctolagus cuniculus, UniProt P12822)
# T1 construct: purchased Wako Jun-yaku A6778 (Lot No.)
# T1 sequence (P12822 34-1310): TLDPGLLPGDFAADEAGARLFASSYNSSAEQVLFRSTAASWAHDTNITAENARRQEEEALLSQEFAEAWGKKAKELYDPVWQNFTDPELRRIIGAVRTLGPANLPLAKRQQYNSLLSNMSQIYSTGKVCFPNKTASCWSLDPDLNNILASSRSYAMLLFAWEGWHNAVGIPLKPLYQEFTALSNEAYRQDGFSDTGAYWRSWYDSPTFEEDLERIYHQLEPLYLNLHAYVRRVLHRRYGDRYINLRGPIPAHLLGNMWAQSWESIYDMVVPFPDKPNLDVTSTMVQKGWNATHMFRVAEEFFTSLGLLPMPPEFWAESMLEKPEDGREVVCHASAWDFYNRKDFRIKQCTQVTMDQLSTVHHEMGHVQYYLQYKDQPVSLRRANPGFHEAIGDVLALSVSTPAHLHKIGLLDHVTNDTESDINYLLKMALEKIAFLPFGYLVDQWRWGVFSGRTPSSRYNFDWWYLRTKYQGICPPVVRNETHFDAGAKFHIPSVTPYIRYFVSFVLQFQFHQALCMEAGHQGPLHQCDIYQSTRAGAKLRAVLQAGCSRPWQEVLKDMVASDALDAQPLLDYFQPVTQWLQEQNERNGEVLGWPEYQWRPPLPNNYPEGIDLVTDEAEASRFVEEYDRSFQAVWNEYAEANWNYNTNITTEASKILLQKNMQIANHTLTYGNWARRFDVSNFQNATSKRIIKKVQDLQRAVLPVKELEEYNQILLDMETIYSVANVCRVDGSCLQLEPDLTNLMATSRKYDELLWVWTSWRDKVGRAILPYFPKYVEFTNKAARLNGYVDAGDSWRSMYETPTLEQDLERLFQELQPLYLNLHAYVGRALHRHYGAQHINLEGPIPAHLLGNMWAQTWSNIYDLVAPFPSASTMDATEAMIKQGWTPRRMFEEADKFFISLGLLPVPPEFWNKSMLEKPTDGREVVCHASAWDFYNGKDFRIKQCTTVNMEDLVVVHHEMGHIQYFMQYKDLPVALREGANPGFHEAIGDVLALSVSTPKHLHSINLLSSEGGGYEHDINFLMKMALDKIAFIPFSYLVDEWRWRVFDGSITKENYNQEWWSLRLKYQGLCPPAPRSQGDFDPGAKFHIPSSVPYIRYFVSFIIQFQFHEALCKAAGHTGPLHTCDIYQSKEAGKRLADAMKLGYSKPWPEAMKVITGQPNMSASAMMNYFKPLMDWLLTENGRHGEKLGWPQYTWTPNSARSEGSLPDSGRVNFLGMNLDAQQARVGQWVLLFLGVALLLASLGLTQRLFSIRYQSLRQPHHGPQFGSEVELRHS
# Test: ACE inhibiting activity (Hip-His-Leu substrate, liberated hippuric acid OD at 228 nm)
# Type: biochemical
# Details: final sample concentration 10 mM
# Method: The blood pressure-lowering activity of the oligosaccharide for use in the invention was investigated by determining the angiotensin-converting enzyme inhibiting activity (hereinafter referred to as ACE inhibiting activity) thereof. Concretely, various oligosaccharides mentioned below were analyzed for their ACE inhibiting activity. • 1) Glc(α1-1α)Glc: α,α-trehalose (sold by Wako Jun-yaku, Lot No. KP7915), • 2) Glc(α1-1β)Glc: α,β-trehalose (sold by Sigma, Lot No. T-0299), • 3) Glc(β1-1β)Glc: β,β-trehalose (sold by Sigma, Lot No. T-0917), • 4) Glc(α1-2)Glc: kojibiose (sold by Sigma, Lot No. T-0299), • 5) Glc(β1-2)Glc: sophorose (sold by Sigma, Lot No. S-1404), • 6) Glc(α1-3)Glc: nigerose (sold by Wako Jun-yaku, Lot No. 142-06433), • 7) Glc(β1-3)Glc: laminaribiose (sold by Sigma, Lot No. L-6384), • 8) Glc(α1-4)Glc: maltose (sold by Sigma, Lot No. M-9171), • 9) Glc(β1-4)Glc: cellobiose (sold by Nacalai, Lot No. 075-11), • 10) Glc(α1-6)Glc: isomaltose (sold by Sigma, Lot No. I-7253), • 11) Glc(β1-6)Glc: gentiobiose (sold by Sigma, Lot No. G-3000), • 12) Gal(α1-6)Glc: melibiose (sold by Sigma, Lot No. M-5500), • 13) Gal(β1-6)Gal (sold by Sigma, Lot No. G-5643), • 14) Glc(α1-6) glucitol:Glc(α1-6) mannitol (=50:50) (sold by Sigma, Lot No. P8583-500), • 15) Glc(α1-6)Fru: palatinose (sold by Sigma, Lot No. M-5500), • 16) Fru(β2-1α)Glc: sucrose (sold by Wako Jun-yaku, Lot No. 192-00012), and • 17) Glc(α1-3) Fru(β2-1α) Glc: melezitose (sold by Nacalai, Lot No. 214-01). In these, Glu means glucose; Gal means galactose; and Fru means fructose.
# Each oligosaccharide as above was dissolved in water (MilliQ water). Because of the solubility thereof, the sample was dissolved to have a final concentration of 10, 30 or 100 mM at the time when its activity is determined (Table 1). Next, with cooling with ice, 30 μl of the sample (Nos. 1 to 17 in Table 1) was put into a test tube. Then, 100 μl of ACE (sold by Wako Jun-yaku, Lot No. A6778) in a borate buffer (60 mU/ml) (pH 8.3) was added to each sample. As a blank, one also added with 250 μl of 1 N HCl serving as a reaction stopper was prepared. These were pre-incubated at 37° C. for 5 minutes. Further, 250 μl of a borate buffer (pH 8.3) containing as a substrate, 7.6 mM Hip-His-Leu (sold by Sigma, Lot No. 012-02195) and 608 mM sodium chloride (sold by Wako Jun-yaku, Lot No. 191-01665) was added. These were reacted at 37° C. for 30 minutes. Then, 250 μl of 1 NHCl was added and stirred, and the reaction was stopped. Then, 1.5 ml of ethyl acetate (sold by Wako Jun-yaku, Lot No. 051-00356) was added, and the thus-liberated hippuric acid was extracted out. After thus extracted, it was centrifuged at 3000 rpm for 10 minutes, and 0.5 ml of the supernatant (ethyl acetate layer)was recovered. The thus-recovered ethyl acetate was removed under reduced pressure, and 4 ml of water was added and stirred. The absorption of the dissolved hippuric acid at 228 nm (OD) was measured. The borate buffer used herein was prepared from Na2B4O7 (sold by Wako Jun-yaku, Lot No. 194-01415) and H3BO3 (sold by Wako Jun-yaku, Lot No. 012-02195) so that its pH could be 8.3. The data obtained were computed according to the calculation formula mentioned below, and the ACE inhibiting activity (%) of each sample was obtained as in Table 1 and FIG. 1. ACE Inhibiting Activity (%)={[(solvent OD−solvent blank OD)−(sample OD−sample blank OD)]/(solvent OD−solvent blank OD)}×100.
row,Molecule,ACE Inhibiting Activity (%)
1,"OC[C@H]1O[C@H](O[C@H]2C(O)O[C@H](CO)[C@@H](O)[C@@H]2O)[C@H](O)[C@@H](O)[C@@H]1O (stereo partly shown) [compound 4, kojibiose]",1.0
2,"OC[C@H]1O[C@H](O[C@H]2[C@H](O)[C@@H](CO)OC(O)[C@@H]2O)[C@H](O)[C@@H](O)[C@@H]1O (stereo partly shown) [compound 6, nigerose]",0.4

# Same assay, conditions: final sample concentration 30 mM
Molecule,ACE Inhibiting Activity (%),inhibition at 30000 µM [%]
"OC[C@H]1O[C@H](O[C@H]2O[C@H](CO)[C@@H](O)[C@H](O)[C@H]2O)[C@H](O)[C@@H](O)[C@@H]1O [compound 1, α,α-trehalose]",1.2,
"OC[C@H]1O[C@@H](O[C@H]2O[C@H](CO)[C@@H](O)[C@H](O)[C@H]2O)[C@H](O)[C@@H](O)[C@@H]1O [compound 2, α,β-trehalose]",1.6,
"OC[C@H]1O[C@@H](O[C@@H]2O[C@H](CO)[C@@H](O)[C@H](O)[C@H]2O)[C@H](O)[C@@H](O)[C@@H]1O [compound 3, β,β-trehalose]",0.6,
"OC[C@H]1O[C@@H](O[C@H]2C(O)O[C@H](CO)[C@@H](O)[C@@H]2O)[C@H](O)[C@@H](O)[C@@H]1O (stereo partly shown) [compound 5, sophorose]",3.0,
"OC[C@H]1O[C@@H](O[C@H]2[C@H](O)[C@@H](CO)OC(O)[C@@H]2O)[C@H](O)[C@@H](O)[C@@H]1O (stereo partly shown) [compound 7, laminaribiose]",0.8,
"O=C[C@H](O)[C@@H](O)[C@H](O[C@@H]1O[C@H](CO)[C@@H](O)[C@H](O)[C@H]1O)[C@H](O)CO [compound 9, cellobiose]",,-1
"OC[C@H]1O[C@@](CO)(O[C@H]2O[C@H](CO)[C@@H](O)[C@H](O)[C@H]2O)[C@@H](O)[C@@H]1O [compound 16, sucrose]",,6.6
"OC[C@H]1O[C@@](CO)(O[C@H]2O[C@H](CO)[C@@H](O)[C@H](O)[C@H]2O)[C@@H](O[C@H]2O[C@H](CO)[C@@H](O)[C@H](O)[C@H]2O)[C@@H]1O [compound 17, melezitose]",,5.5

# Same assay, conditions: final sample concentration 100 mM
Molecule,inhibition at 100000 µM [%],ACE Inhibiting Activity (%)
"OC[C@H]1O[C@H](O[C@H]2[C@H](O)[C@@H](O)C(O)O[C@@H]2CO)[C@H](O)[C@@H](O)[C@@H]1O (mixture of isomers) [compound 8, maltose]",6.3,
"OC[C@H]1O[C@H](OC[C@H]2OC(O)[C@H](O)[C@@H](O)[C@@H]2O)[C@H](O)[C@@H](O)[C@@H]1O (stereo partly shown) [compound 10, isomaltose]",,27.2
"OC[C@H]1O[C@H](OCC2O[C@@H](O)[C@H](O)[C@@H](O)[C@@H]2O)[C@H](O)[C@@H](O)[C@H]1O (stereo partly shown) [compound 12, melibiose]",,40.7
"OC[C@H]1O[C@@H](OC[C@H]2OC(O)[C@H](O)[C@@H](O)[C@H]2O)[C@H](O)[C@@H](O)[C@H]1O (stereo partly drawn) [compound 13, Gal(β1-6)Gal]",,54.9
"OC[C@H]1O[C@H](OC[C@H]2OC(O)(CO)[C@@H](O)[C@@H]2O)[C@H](O)[C@@H](O)[C@@H]1O (stereo partly shown) [compound 15, palatinose]",,93.5
gentiobiose [compound 11],,31.5
